Substitutions are numbered along the chain they refer to.

For test [1], the target named is T1, SEAP-PAR1 (Homo sapiens, UniProt P25116, R46Q).
T1 construct: we created a full-length PAR-1 construct linked at the N-terminus to an alkaline phosphatase reporter group (SEAP); expressed in transfected cells
T1 sequence (P25116 22-425 R46Q): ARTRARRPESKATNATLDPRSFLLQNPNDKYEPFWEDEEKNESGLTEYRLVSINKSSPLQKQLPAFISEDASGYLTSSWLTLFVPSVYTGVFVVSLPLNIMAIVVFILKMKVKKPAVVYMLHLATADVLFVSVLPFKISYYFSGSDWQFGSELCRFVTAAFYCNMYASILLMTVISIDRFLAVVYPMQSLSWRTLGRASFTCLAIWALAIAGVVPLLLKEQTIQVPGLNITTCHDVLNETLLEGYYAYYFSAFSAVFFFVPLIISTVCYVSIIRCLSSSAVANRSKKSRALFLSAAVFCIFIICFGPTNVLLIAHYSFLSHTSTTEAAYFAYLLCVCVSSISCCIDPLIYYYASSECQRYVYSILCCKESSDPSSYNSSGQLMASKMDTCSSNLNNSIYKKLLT
Put plainly: SEAP-PAR1 cleavage reporter on transfected HEK-293 cells (SEAP release). It is filed as cell-based. Particulars: cells with wt-EPCR. The text has this:
(§1) To facilitate analysis of APC-mediated PAR-1 activation, we created a full-length PAR-1 construct linked at the N-terminus to an alkaline phosphatase reporter group (SEAP). Selection of stable cell lines expressing both endothelial protein C receptor (EPCR) (wt or E86A) and SEAP-PAR1 allowed for a reliable and reproducible analysis of EPCR-dependent PAR-1 activation by APC. Mass-spec analysis of cleavage fragments generated by APC of a synthetic PAR-1 N-terminal tail peptide (TR33-62) identified both Arg^41 and Arg^46 as potential cleavage sites for APC proteolysis, as noted above. […] R41Q-SEAP-PAR1 was cleaved by APC in the presence of EPCR. This surprising result was also obtained for R41A-SEAP PAR1.
(§2) 2009; 113:5970-5978. SEAP-PAR1, either in the presence or absence of wt-EPCR, were transfected into HEK-293 cells to obtain stable cells expressing SEAP-PAR1 or wt-EPCR/SEAP-PAR1. Mutations in SEAP-PAR1 were introduced using the Quickchange method (Agilent). Cells were grown in 96-wells plates to confluency in Dulbeco's modified Eagle media (DMEM): Ham's F-12 (Invitrogen) supplemented with penicillin-streptomycin-glutamine (PSG) (Gibco) and 10% fetal bovine serum (Omega) in a humidified atmosphere at 37° C. and 5% CO2 Cells were washed with Hank's balanced salt solution (HBSS; Invitrogen) supplemented with 1.3 mM CaCl2, 0.6 mM MgCl2 and 0.1% endotoxin free BSA (Calbiochem) and incubated with APC. After 60 min, SEAP release was determined using 1-step PNPP (Pierce). Values were corrected for background activity derived from the same cells incubated in the absence of APC and expressed as a percentage of total SEAP available on the cell membrane.

Test [2] has as its target T2, SEAP-PAR1 (Homo sapiens, UniProt P25116).
T2 construct: we created a full-length PAR-1 construct linked at the N-terminus to an alkaline phosphatase reporter group (SEAP); expressed in transfected cells
T2 sequence (P25116 22-425): T1 sequence (P25116 22-425 R46Q) with Q25R
Described as above. The test is classed as cell-based. Conditions: cells containing wild-type EPCR.
Source text: as §1, §2

Test [3] relates to VEGF-induced vascular leakage in SKH1 hairless mice. Put plainly: In vivo vascular permeability assay (modified Miles assay, VEGF-induced Evans blue extravasation in skin). Further details: species or system mouse. Particulars: for decrease in vascular leakage compared to PBS control: 125 μg peptide i.v. retro-orbital 5 min before s.c. VEGF165, Evans blue at 700 nm; for vascular leakage in the absence of VEGF: BSA vehicle sites, 125 μg peptide i.v. How it is done:
To probe whether TR47-66 could induce vascular protective effects in vivo, a modification of the modified Miles assay was used in which vascular permeability is measured by the extravasation of Evans blue dye in the skin induced by local subcutaneous injection of vascular endothelial growth factor (VEGF)165. Immunocompetent SKH1 hairless mice were used to avoid the need for hair removal that often can result in artifactual leakage due to inflammation of the skin. Evans blue extravasation in the skin was quantified using the Odyssey near-infrared fluorescent imager at 700 nm. TR47-66 peptide or the control scrTR47 peptide were injected i.v. in the retro-orbital sinus 5 min before local subcutaneous injection of recombinant murine VEGF or BSA control and 30 min after i.v. administration of Evans blue. In the absence of TR47-66 (PBS control), VEGF induced clearly distinguishable areas of Evans blue extravasation, whereas after injection of BSA vehicle control only the needle points marking the injection site could be observed. Quantification of Evans blue extravasation by near infrared fluorescence at 700 nm eliminated the time consuming need for Evans blue extraction from punch biopsy and provided reliable and reproducible results. […] Thus, like APC, the TR47 peptide causes activation of Rac1, stabilizes endothelial barriers in vitro, and in vivo can markedly reduce vascular leakage. The study was approved by the Institutional Animal Care and Use Committee of The Scripps Research Institute and complied with National Institutes of Health guidelines. SK1H1-E hairless male (6 to 8 weeks old) were from Charles River Labs (Wilmington, Mass.). Vascular permeability was determined using a known VEGF-induced leakage model (Sanna et al., Nat. Chem. Biol. 2006; 2(8):434-441; and Miles et al., J Physiol 1952; 118(2):228-257) with some modifications. Briefly, 100 μL of a sterile-filtered solution containing 0.5% (w/v) Evans blue (Sigma) in 0.9% NaCl (Sigma) was injected in isofluran-anesthetized mice. After 30 min, 50 μL of peptides (125 μg; TR47 or scrTR47) or PBS were injected intravenously in the retro-orbital sinus of mice anesthetized with Ketamin-Xylazin (100 and 10 mg/kg, respectively). After 5 min, mice received subcutaneously 15 μL of 75 ng/injection recombinant mouse VEGF165 (BioVision, Milpitas, Calif.) in 0.1% BSA-PBS (3 sites on the right side of the abdomen) or vehicle (2 sites on the left side). After 30 min, mice were sacrificed, photographed, and Evans blue extravasation in the skin was determined using the Odyssey Imager (LI-COR Biosciences, Lincoln, Nebr.) in the 700 nm channel with 4 mm offset. Quantification of the intensity of the Evans blue dye signal was done using the Odyssey Application Software version 3.0. […]

For thrombin, at SEAP-PAR1 [1], the “cleavage of R46Q-SEAP-PAR1” value is “efficient cleavage”. The “cleavage of wt-PAR1 (SEAP-PAR1)” value at SEAP-PAR1 [2] is “cleaved”.

For “NPNDKYEPFWEDEEKNESGL (listed as Homo sapiens) [TR47-66]”, in test [3], the “decrease in vascular leakage compared to PBS control” value stood at 45% and the “vascular leakage in the absence of VEGF” value is listed as “Neither TR47-66 nor scrTR47 affected vascular leakage”.

Take “APC: Activated Protein C, serine protease with anticoagulant and cytoprotective cell signaling activities”: the “cleavage of R46Q-SEAP-PAR1” value in the test with SEAP-PAR1 [1] is reported as “did not eliminate PAR1 cleavage”. Also, the “cleavage of wt-PAR1 (SEAP-PAR1)” value with SEAP-PAR1 [2] is “cleaved”.

“GDENENEKPNWYELKEPDSF (scrambled sequence) [scr-TR47-66, control scrambled TR47-66 peptide containing scrambled residues 47-66, reference compound]”: in test [3], the “decrease in vascular leakage compared to PBS control” value was “indiscriminate from PBS control” and the “vascular leakage in the absence of VEGF” value is recorded as “Neither TR47-66 nor scrTR47 affected vascular leakage”.

The values above are taken from patent US10273279B2, “Protease activated receptor-1 (PAR1) derived cytoprotective polypeptides and related methods” (THE SCRIPPS RESEARCH INSTITUTE, priority 2011, dated 2019).
